In patent US9409952B2, “Peptide-compound cyclization method” (Chugai Seiyaku Kabushiki Kaisha, priority 2011, dated 2016):
Where two headings read alike, the source gives them in different places. Starred links: 1 amine or outer side, 2 acyl side, 3 side chain; linkers in the order of their positions; H or OH if unused. Positions of bridges follow the written chain, without caps; N, C: chain ends. Non-standard residues stand in square brackets, D forms with d. Residues, ends and D or L forms follow the SMILES beside them. *: point of attachment. Phe(4-(CH2)5CO) = O=C([C@H](Cc1ccc(CCCCCC(=O)[*:3])cc1)N[*:1])[*:2]; NMePhe(3-Cl) = CN[C@@H](Cc1cccc(Cl)c1)C(=O)O; NMeF = CN[C@@H](Cc1ccccc1)C(=O)O; NMeI = CC[C@H](C)[C@H](NC)C(=O)O; 3Pal = N[C@@H](Cc1cccnc1)C(=O)O; NMeβAla = CN(CCC(=O)[*:2])[*:1]; NMeL = CN[C@@H](CC(C)C)C(=O)O; NMeV = CN[C@H](C(=O)O)C(C)C; NMeA = CN[C@@H](C)C(=O)O; Piperidide = C1CCN(*)CC1; dNMeA = CN[C@H](C)C(=O)O; β3hA = C[C@H](N)CC(=O)O; Sar = CNCC(=O)O; tBu = CC(C)(C)*

Legend:
[1] = PAMPA (parallel artificial membrane permeability assay); type: in vitro ADME; conditions: for Papp at 18 hours, 50 µM: PAMPA
Outline: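 Artificial membrane was 10% (w/v) egg lecithin plus 0.5% (w/v) cholesterol in dodecane on a PVDF filter. A 10 mM DMSO stock was added at 0.5% (v/v) to donor buffer (50 mM MOPSO, pH 6.5, 5.0% glycocholic acid). After 18 h at 37 °C, LC/MS or LC/UV gave donor and acceptor levels for Pe.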

[2] = Metabolic stability in human hepatic microsome; type: in vitro ADME; conditions: for microsomal CLint at 1 uM: microsomes
[3] = membrane permeation rate (Pe), 50 mM MOPSO buffer pH 6.5 with 5.0% glycocholic acid, 37° C., 18 hours, read-out: iPAMPA Pe
[4] = pH 7.4, human hepatic microsome, NADPH(+), read-out: CL NADPH(+)

SMILES	Papp at 18 hours, 50 µM [1, 3] [×10⁻⁶ cm/s]	microsomal CLint at 1 uM [2, 4] [µL/min/mg]	Papp at 18 hours, 50 µM ([1]; pH 6.5) [×10⁻⁶ cm/s]	further results
CC[C@H](C)[C@H](NC(=O)[C@H](CC(C)C)NC(=O)[C@H](CC(C)C)N(C)C(=O)CN(C)C(=O)[C@@H]1CC(=O)N[C@H](C)C(=O)N[C@@H]([C@@H](C)O)C(=O)N(C)[C@@H](CC(C)C)C(=O)N[C@@H]([C@@H](C)CC)C(=O)N(C)[C@@H](CC(C)C)C(=O)N[C@@H](CC(C)C)C(=O)N1)C(=O)N1CCCCC1 [DP-919] ([dA]T[NMeL]I[NMeL]LD[Sar][NMeL]LI-Piperidide; lactam N-7)	27	128		
CC(C)C[C@@H]1NC(=O)[C@H](Cc2cccnc2)NC(=O)[C@H](Cc2ccccc2)N(C)C(=O)[C@H](CC(C)C)NC(=O)[C@H](CC(C)C)N(C)C(=O)[C@H](Cc2ccccc2)NC(=O)[C@H](CC(C)C)N(C)C(=O)[C@H](CC(C)C)N(C)C(=O)[C@H](Cc2ccccc2)NC(=O)CN(C)C(=O)C[C@@H](C(=O)N(C)[C@@H](Cc2ccccc2)C(=O)N[C@@H](C)C(=O)N2CCCCC2)NC1=O [DP-600] ([Sar]F[NMeL][NMeL]F[NMeL]L[NMeF][3Pal]LD[NMeF]A-Piperidide; lactam N-11)		12		iPAMPA Pe ([1]; membrane permeation rate (Pe), 50 mM MOPSO buffer pH 6.5 with 5.0% glycocholic acid, 37° C., 18 hours): 1.0E−07
CC[C@H](C)[C@H]1C(=O)N(C)[C@@H](Cc2ccccc2)C(=O)NCC(=O)N(C)[C@@H](Cc2ccccc2)C(=O)N(C)[C@@H](CC(C)C)C(=O)N(C)[C@@H](CC(C)C)C(=O)N[C@H](C(=O)N2CCCCC2)CC(=O)N[C@H](C(C)C)C(=O)N[C@@H]([C@@H](C)O)C(=O)N(C)[C@@H](C)C(=O)N1C [DP-72] ([dV]T[NMeA][NMeI][NMeF]G[NMeF][NMeL][NMeL]D-Piperidide; lactam N-10)			27	microsomal CLint at 1 uM ([2]; human, pH 7.4, CL NADPH(+)): 58 µL/min/mg
CC(C)C[C@H]1C(=O)N[C@H](C(=O)N2CCCCC2)CC(=O)N[C@H](C)C(=O)N(C)[C@@H](Cc2ccccc2)C(=O)N(C)[C@@H](CC(C)C)C(=O)N[C@@H]([C@@H](C)O)C(=O)N(C)[C@@H](C)C(=O)N[C@@H](COC(C)(C)C)C(=O)N1C [DP-708] ([dA][NMeF][NMeL]T[NMeA]S(tBu)[NMeL]D-Piperidide; lactam N-8)	16	35		
CC[C@H](C)[C@@H]1NC(=O)[C@H](CC(C)C)N(C)C(=O)[C@H](Cc2ccccc2)N(C)C(=O)[C@H](CC(C)C)NC(=O)CCCCCc2ccc(cc2)C[C@@H](C(=O)N2CCCCC2)NC(=O)[C@H](C)N(C)C(=O)[C@H](C)N(C)C(=O)CN(C)C(=O)[C@H]([C@@H](C)O)NC(=O)[C@H](Cc2ccccc2)N(C)C(=O)[C@H](C(C)C)N(C)C1=O [DP-875] (L[NMeF][NMeL]I[NMeV][NMeF]T[Sar][NMeA][NMeA][Phe(4-(CH2)5CO)]-Piperidide; lactam N-11)	19	34		
CC[C@H](C)[C@H]1C(=O)N[C@@H](COC(C)(C)C)C(=O)N(C)[C@@H](Cc2ccccc2)C(=O)N(C)[C@@H](C(C)C)C(=O)N[C@H](C(=O)N2CCCCC2)Cc2ccc(cc2)CCCCCC(=O)N(C)[C@@H](Cc2ccccc2)C(=O)N[C@@H](CC(C)C)C(=O)N(C)[C@@H](CC(C)C)C(=O)N[C@@H]([C@@H](C)O)C(=O)N(C)CC(=O)N1C [DP-852] ([NMeF]L[NMeL]T[Sar][NMeI]S(tBu)[NMeF][NMeV][Phe(4-(CH2)5CO)]-Piperidide; lactam N-10)	0.7	484		
CC(C)C[C@H]1C(=O)N[C@H](C(=O)N2CCCCC2)CC(=O)N(C)[C@@H](C)C(=O)N(C)[C@@H](Cc2ccccc2)C(=O)N(C)[C@@H](C)C(=O)N[C@@H]([C@@H](C)O)C(=O)N(C)[C@@H](C)C(=O)N[C@@H](Cc2ccccc2)C(=O)N(C)[C@@H](C)C(=O)N[C@@H](C)C(=O)N(C)[C@@H](C)C(=O)N1C [DP-422] ([NMeA][NMeF][NMeA]T[NMeA]F[NMeA]A[NMeA][NMeL]D-Piperidide; lactam N-11)	3.8	26		
CC(C)C[C@H]1C(=O)N[C@@H](Cc2ccccc2)C(=O)N[C@@H]([C@@H](C)O)C(=O)N(C)[C@@H](C)C(=O)N[C@H](C(=O)N2CCCCC2)CC(=O)N(C)CC(=O)N[C@@H](C)C(=O)N(C)[C@@H](Cc2ccccc2)C(=O)N(C)[C@@H](CC(C)C)C(=O)N1C [DP-161] ([Sar]A[NMeF][NMeL][NMeL]FT[NMeA]D-Piperidide; lactam N-9)	26	194		
CC[C@H](C)[C@@H]1NC(=O)[C@H](Cc2ccccc2)N(C)C(=O)[C@H](CC(C)C)NC(=O)[C@H](CC(C)C)NC(=O)[C@H](Cc2ccccc2)NC(=O)[C@H](CC(C)C)NC(=O)[C@@H](C)NC(=O)C[C@@H](C(=O)N2CCCCC2)NC(=O)[C@H](Cc2ccccc2)NC(=O)[C@H]([C@@H](C)O)NC1=O [DP-115] ([dA]LFLL[NMeF]ITFD-Piperidide; lactam N-10)	0.45	28		
CC[C@H](C)[C@H](NC(=O)[C@H](C)N(C)C(=O)[C@H](CC(C)C)N(C)C(=O)[C@@H](NC(=O)[C@@H]1CC(=O)N(C)[C@@H](C)C(=O)N[C@@H]([C@@H](C)O)C(=O)N(C)[C@@H](Cc2ccccc2)C(=O)N[C@@H](C(C)C)C(=O)N2CCC[C@H]2C(=O)N(C)[C@@H](Cc2ccccc2)C(=O)N[C@@H](CC(C)C)C(=O)N(C)[C@@H](Cc2ccccc2)C(=O)N1)C(C)C)C(=O)N1CCCCC1 [DP-943] ([NMeA]T[NMeF]VP[NMeF]L[NMeF]DV[NMeL][NMeA]I-Piperidide; lactam N-9)			0.1	microsomal CLint at 1 uM ([2]; human, pH 7.4, CL NADPH(+)): 7 µL/min/mg
CC[C@H](C)[C@@H]1NC(=O)[C@@H](C)N(C)C(=O)C[C@@H](C(=O)N(C)[C@@H](Cc2ccccc2)C(=O)N[C@@H](C)C(=O)N2CCCCC2)NC(=O)[C@H](Cc2ccccc2)N(C)C(=O)[C@H](C)NC(=O)[C@H](CC(C)C)N(C)C(=O)[C@H](C)N(C)C(=O)[C@H]([C@@H](C)O)NC(=O)[C@H](C(C)C)N(C)C(=O)[C@H](C)N(C)C1=O [DP-124] ([dNMeA]I[NMeA][NMeV]T[NMeA][NMeL]A[NMeF]D[NMeF]A-Piperidide; lactam N-10)			20	microsomal CLint at 1 uM ([2]; human, pH 7.4, CL NADPH(+)): 27 µL/min/mg
CC(C)C[C@H]1C(=O)N[C@@H](COC(C)(C)C)C(=O)N[C@H](C(=O)N2CCCCC2)CC(=O)N[C@@H](C)C(=O)N(C)[C@@H](C)C(=O)N(C)[C@@H](Cc2ccccc2)C(=O)N(C)[C@@H](CC(C)C)C(=O)N[C@@H]([C@@H](C)O)C(=O)N(C)CC(=O)N1C [DP-38] (A[NMeA][NMeF][NMeL]T[Sar][NMeL]S(tBu)D-Piperidide; lactam N-9)			16	microsomal CLint at 1 uM ([2]; human, pH 7.4, CL NADPH(+)): 55 µL/min/mg
CC(C)C[C@H]1C(=O)N[C@H](C(=O)N2CCCCC2)CC(=O)N(C)CCC(=O)N[C@@H]([C@@H](C)O)C(=O)N(C)[C@@H](C)C(=O)N[C@@H](COC(C)(C)C)C(=O)N(C)[C@@H](Cc2ccccc2)C(=O)N(C)[C@@H](CC(C)C)C(=O)N1C [DP-704] ([NMeβAla]T[NMeA]S(tBu)[NMeF][NMeL][NMeL]D-Piperidide; lactam N-8)	29	83		
CC[C@H](C)[C@H]1C(=O)N(C)[C@@H](Cc2ccccc2)C(=O)N(C)[C@@H](CC(C)C)C(=O)N[C@H](C(=O)N2CCCCC2)CC(=O)N(C)[C@H](C)C(=O)N(C)[C@@H](CC(C)C)C(=O)N[C@@H]([C@@H](C)O)C(=O)N(C)[C@@H](C)C(=O)N[C@@H](C)C(=O)N(C)[C@@H](Cc2ccccc2)C(=O)N[C@@H](CC(C)C)C(=O)N1C [DP-244] ([dNMeA][NMeL]T[NMeA]A[NMeF]L[NMeI][NMeF][NMeL]D-Piperidide; lactam N-11)	31	16		
CC[C@H](C)[C@H]1C(=O)N[C@@H](C)CC(=O)N(C)[C@H](C)C(=O)N(C)[C@@H](Cc2cccc(Cl)c2)C(=O)N(C)[C@@H](CC(C)C)C(=O)N[C@@H]([C@@H](C)O)C(=O)N(C)CC(=O)N[C@@H](COC(C)(C)C)C(=O)N(C)[C@@H](CC(C)C)C(=O)N1C [DP-799] (cyclo([NMeI][β3hA][dNMeA][NMePhe(3-Cl)][NMeL]T[Sar]S(tBu)[NMeL]))	32	222		
CC(C)C[C@H]1C(=O)N(C)[C@@H](Cc2ccccc2)C(=O)N(C)[C@@H](CC(C)C)C(=O)N[C@H](C(=O)N2CCCCC2)CC(=O)N[C@H](C(C)C)C(=O)N[C@@H](C)C(=O)N[C@@H]([C@@H](C)O)C(=O)N(C)[C@@H](C)C(=O)N[C@@H](Cc2ccccc2)C(=O)N1C [DP-78] ([dV]AT[NMeA]F[NMeL][NMeF][NMeL]D-Piperidide; lactam N-9)			38	microsomal CLint at 1 uM ([2]; human, pH 7.4, CL NADPH(+)): 57 µL/min/mg
CC(C)C[C@H]1C(=O)N[C@@H](COC(C)(C)C)C(=O)N[C@H](C(=O)N2CCCCC2)CC(=O)N(C)[C@@H](C)C(=O)N(C)[C@@H](C)C(=O)N(C)[C@@H](Cc2ccccc2)C(=O)N(C)[C@@H](CC(C)C)C(=O)N[C@@H]([C@@H](C)O)C(=O)N(C)CC(=O)N1C [DP-39] ([NMeA][NMeA][NMeF][NMeL]T[Sar][NMeL]S(tBu)D-Piperidide; lactam N-9)			16	CL NADPH(+) ([2]; human hepatic microsome, NADPH(+)): 67
CC[C@H](C)[C@@H]1NC(=O)[C@H](Cc2ccccc2)NC(=O)[C@@H](C)N(C)C(=O)C[C@@H](C(=O)N2CCCCC2)NC(=O)[C@H](CC(C)C)NC(=O)[C@H](Cc2ccccc2)N(C)C(=O)[C@H](Cc2ccccc2)NC(=O)[C@H](CC(C)C)NC(=O)[C@H]([C@@H](C)O)NC(=O)[C@H](CC(C)C)NC1=O [DP-119] ([dNMeA]FILTLF[NMeF]LD-Piperidide; lactam N-10)	16	67		
